Test system: 229E human corona virus (hCoV)
Assay: 229E live virus assay (CPE, ATPlite readout in MRC-5 cells)
Type: cell-based, hCoV-229E
Details: Human coronavirus 229E, MRC5, hCoV-229E live virus, MOI 0.05, ATPlite readout, run in duplicate

SMILES	EC50 [nM]
COc1ccc(C(=O)N(C)[C@@H](CC(C)C)C(=O)N2C[C@]3(C[C@H]2C#N)C(=O)Nc2ccccc23)cc1C(F)(F)F [Example 181]	< 100
COc1ccc(C(=O)N(C)[C@@H](CC(C)C)C(=O)N2C[C@]3(C[C@H]2C#N)C(=O)Nc2ccccc23)cc1F [Example 182]	< 100
CC(C)C[C@@H](C(=O)N1C[C@]2(C[C@H]1C#N)C(=O)Nc1ccccc12)N(C)C(=O)c1c(Cl)cc(Cl)cc1Cl [Example 185]	< 100
CC(C)C[C@@H](C(=O)N1C[C@]2(C[C@H]1C#N)C(=O)Nc1ccccc12)N(C)C(=O)c1c(Cl)cc(F)cc1Cl [Example 186]	< 100
CC(C)C[C@@H](C(=O)N1C[C@]2(C[C@H]1C#N)C(=O)Nc1ccccc12)N(C)C(=O)c1cc(Cl)cc(C#N)c1 [Example 187]	< 100
CC(C)C[C@@H](C(=O)N1C[C@]2(C[C@H]1C#N)C(=O)Nc1ccccc12)N(C)C(=O)c1cccc(OC(F)F)c1 [Example 188]	< 100
CC(C)C[C@@H](C(=O)N1C[C@]2(C[C@H]1C#N)C(=O)Nc1ccccc12)N(C)C(=O)c1cccc(OC(F)(F)F)c1 [Example 189]	< 100
CC(C)C[C@@H](C(=O)N1C[C@]2(C[C@H]1C#N)C(=O)Nc1ccccc12)N(C)C(=O)c1ccc2c(c1)OC(F)(F)O2 [Example 190]	< 100
COc1ccnc(C(=O)N(C)[C@@H](CC(C)C)C(=O)N2C[C@]3(C[C@H]2C#N)C(=O)Nc2ccccc23)c1 [Example 192]	< 100
COc1ccc(C(=O)N(C)[C@@H](CC(C)C)C(=O)N2C[C@]3(C[C@H]2C#N)C(=O)Nc2ccccc23)nc1 [Example 193]	< 100
CC(C)C[C@@H](C(=O)N1C[C@]2(C[C@H]1C#N)C(=O)Nc1ccccc12)N(C)C(=O)c1ccncc1 [Example 194]	< 100
CC(C)C[C@@H](C(=O)N1C[C@]2(C[C@H]1C#N)C(=O)Nc1ccccc12)N(C)C(=O)c1cncc(C(F)(F)F)c1 [Example 195]	< 100
CC(C)C[C@@H](C(=O)N1C[C@]2(C[C@H]1C#N)C(=O)Nc1ccccc12)N(C)C(=O)c1cncc(F)c1 [Example 196]	< 100
CC(C)C[C@@H](C(=O)N1C[C@]2(C[C@H]1C#N)C(=O)Nc1ccccc12)N(C)C(=O)c1cc(F)ccn1 [Example 197]	< 100
CC(C)C[C@@H](C(=O)N1C[C@]2(C[C@H]1C#N)C(=O)Nc1ccccc12)N(C)C(=O)c1ccc(F)cn1 [Example 198]	< 100
CC(C)C[C@@H](C(=O)N1C[C@]2(C[C@H]1C#N)C(=O)Nc1ccccc12)N(C)C(=O)c1cccc(N)n1 [Example 199]	< 100
CC(C)C[C@@H](C(=O)N1C[C@]2(C[C@H]1C#N)C(=O)Nc1ccccc12)N(C)C(=O)c1cnccn1 [Example 200]	< 100
CC(C)C[C@@H](C(=O)N1C[C@]2(C[C@H]1C#N)C(=O)Nc1ccccc12)N(C)C(=O)c1cn(C)cn1 [Example 201]	< 100
CC(C)C[C@@H](C(=O)N1C[C@]2(C[C@H]1C#N)C(=O)Nc1ccccc12)N(C)C(=O)c1ccn[nH]1 [Example 202]	< 100
CC(C)C[C@@H](C(=O)N1C[C@]2(C[C@H]1C#N)C(=O)Nc1ccccc12)N(C)C(=O)c1ccnn1C [Example 203]	< 100
CC(C)C[C@@H](C(=O)N1C[C@]2(C[C@H]1C#N)C(=O)Nc1ccccc12)N(C)C(=O)c1ccn(C)n1 [Example 204]	< 100

SMILES	EC50 [nM]
CC(C)C[C@@H](C(=O)N1C[C@]2(C[C@H]1C#N)C(=O)Nc1ccccc12)N(C)C(=O)c1nc2ccccc2[nH]1 [Example 205]	< 100
CC(C)C[C@@H](C(=O)N1C[C@]2(C[C@H]1C#N)C(=O)Nc1ccccc12)N(C)C(=O)c1nc2ccccc2s1 [Example 206]	< 100
CC(C)C[C@@H](C(=O)N1C[C@]2(C[C@H]1C#N)C(=O)Nc1ccccc12)N(C)C(=O)c1cc2ccccc2s1 [Example 207]	< 100
CC(C)C[C@@H](C(=O)N1C[C@]2(C[C@H]1C#N)C(=O)Nc1ccccc12)N(C)C(=O)c1cc2ccccc2o1 [Example 208]	< 100
CC(C)C[C@@H](C(=O)N1C[C@]2(C[C@H]1C#N)C(=O)Nc1ccccc12)N(C)C(=O)c1cc2sccc2[nH]1 [Example 209]	< 100
CC(C)C[C@@H](C(=O)N1C[C@]2(C[C@H]1C#N)C(=O)Nc1ccccc12)N(C)C(=O)c1ccc2ncccc2c1 [Example 210]	< 100
CC(C)C[C@@H](C(=O)N1C[C@]2(C[C@H]1C#N)C(=O)Nc1ccccc12)N(C)C(=O)c1ccc2ccccc2n1 [Example 211]	< 100
CC(C)C[C@@H](C(=O)N1C[C@]2(C[C@H]1C#N)C(=O)Nc1ccccc12)N(C)C(=O)c1cc2ccccc2cn1 [Example 212]	< 100
CC(C)C[C@@H](C(=O)N1C[C@]2(C[C@H]1C#N)C(=O)Nc1ccccc12)N(C)C(=O)c1cnc2ccccc2c1 [Example 213]	< 100
CC(C)C[C@@H](C(=O)N1C[C@]2(C[C@H]1C#N)C(=O)Nc1ccccc12)N(C)C(=O)c1cccc2ncccc12 [Example 214]	< 100
CC(C)C[C@@H](C(=O)N1C[C@]2(C[C@H]1C#N)C(=O)Nc1ccccc12)N(C)C(=O)c1cccc2cnccc12 [Example 215]	< 100
CC(C)C[C@@H](C(=O)N1C[C@]2(C[C@H]1C#N)C(=O)Nc1ccccc12)N(C)C(=O)c1ccc2cnccc2c1 [Example 216]	< 100
CC(C)C[C@@H](C(=O)N1C[C@]2(C[C@H]1C#N)C(=O)Nc1ccccc12)N(C)C(=O)c1ccc2ccncc2c1 [Example 217]	< 100
CC(C)C[C@@H](C(=O)N1C[C@]2(C[C@H]1C#N)C(=O)Nc1ccccc12)N(C)C(=O)c1ccc2cccnc2c1 [Example 218]	< 100
CC(C)C[C@@H](C(=O)N1C[C@]2(C[C@H]1C#N)C(=O)Nc1ccccc12)N(C)C(=O)c1ccc2ccccc2c1 [Example 219]	< 100
CC(C)C[C@@H](C(=O)N1C[C@]2(C[C@H]1C#N)C(=O)Nc1ccccc12)N(C)C(=O)c1cccc2ccccc12 [Example 220]	< 100
CC(C)C[C@@H](C(=O)N1C[C@]2(C[C@H]1C#N)C(=O)Nc1ccccc12)N(C)C(=O)c1ccc(F)c2ccccc12 [Example 221]	< 100
CC(C)C[C@@H](C(=O)N1C[C@]2(C[C@H]1C#N)C(=O)Nc1ccccc12)N(C)C(=O)c1ccc2cc(F)ccc2c1 [Example 222]	< 100
CC(C)C[C@@H](C(=O)N1C[C@]2(C[C@H]1C#N)C(=O)Nc1ccccc12)N(C)C(=O)c1ccc2cn[nH]c2c1 [Example 223]	< 100
CC(C)C[C@@H](C(=O)N1C[C@]2(C[C@H]1C#N)C(=O)Nc1ccccc12)N(C)C(=O)c1ccc2cnn(C)c2c1 [Example 224]	< 100
CC(C)C[C@@H](C(=O)N1C[C@]2(C[C@H]1C#N)C(=O)Nc1ccccc12)N(C)C(=O)c1ccc2nc(N)sc2c1 [Example 225]	100 to 1000

SMILES	EC50 [nM]
CC(C)C[C@@H](C(=O)N1C[C@]2(C[C@H]1C#N)C(=O)Nc1ccccc12)N(C)C(=O)Cc1ccccc1 [Example 226]	< 100
CC(C)C[C@@H](C(=O)N1C[C@]2(C[C@H]1C#N)C(=O)Nc1ccccc12)N(C)C(=O)CCc1ccccc1 [Example 227]	< 100
CC(C)C[C@@H](C(=O)N1C[C@]2(C[C@H]1C#N)C(=O)Nc1ccccc12)N(C)C(=O)/C=C/c1ccccc1 [Example 228]	< 100
CC(C)C[C@@H](C(=O)N1C[C@]2(C[C@H]1C#N)C(=O)Nc1ccccc12)N(C)C(=O)COc1ccccc1 [Example 229]	< 100
CC(C)C[C@@H](C(=O)N1C[C@]2(C[C@H]1C#N)C(=O)Nc1ccccc12)N(C)C(=O)c1ccc2c(Br)cccc2n1 [Example 231]	< 100
CC(C)C[C@@H](C(=O)N1C[C@]2(C[C@H]1C#N)C(=O)Nc1ccccc12)N(C)C(=O)c1ccc(-c2ccccc2)cc1 [Example 232]	< 100
Cc1ccc2cc(C(=O)N(C)[C@@H](CC(C)C)C(=O)N3C[C@]4(C[C@H]3C#N)C(=O)Nc3ccccc34)ccc2n1 [Example 234]	< 100
CC(C)C[C@@H](C(=O)N1C[C@]2(C[C@H]1C#N)C(=O)Nc1ccccc12)N(C)C(=O)c1ccc2ncc(F)cc2c1 [Example 235]	< 100
CC(C)C[C@@H](C(=O)N1C[C@]2(C[C@H]1C#N)C(=O)Nc1ccccc12)N(C)C(=O)c1cc2ccc(Br)cc2cn1 [Example 236]	< 100
CC(C)C[C@@H](C(=O)N1C[C@]2(C[C@H]1C#N)C(=O)Nc1ccccc12)N(C)C(=O)c1ccc2ncc(C(F)(F)F)cc2c1 [Example 237]	< 100
Cc1cc2cc(C(=O)N(C)[C@@H](CC(C)C)C(=O)N3C[C@]4(C[C@H]3C#N)C(=O)Nc3ccccc34)cc(OC(F)(F)F)c2nc1C [Example 238]	< 100
CC(C)C[C@@H](C(=O)N1C[C@]2(C[C@H]1C#N)C(=O)Nc1ccccc12)N(C)C(=O)c1cc(Cl)c2ncc(C3CC3)cc2c1 [Example 239]	< 100
CC(C)C[C@@H](C(=O)N1C[C@]2(C[C@H]1C#N)C(=O)Nc1ccccc12)N(C)C(=O)c1cc(Cl)c2ncc(C(F)(F)F)cc2c1 [Example 240]	< 100
CC(C)C[C@@H](C(=O)N1C[C@]2(C[C@H]1C#N)C(=O)Nc1ccccc12)N(C)C(=O)c1ccc2ccsc2c1 [Example 246]	< 100
CC(C)C[C@@H](C(=O)N1C[C@]2(C[C@H]1C#N)C(=O)Nc1ccccc12)N(C)C(=O)c1cc2ccccn2n1 [Example 247]	< 100
CC(C)C[C@@H](C(=O)N1C[C@]2(C[C@H]1C#N)C(=O)Nc1ccccc12)N(C)C(=O)C#Cc1ccccc1 [Example 248]	< 100
COc1ccc2[nH]c(C(=O)N(C)[C@@H](CC(C)C)C(=O)N3C[C@]4(C[C@H]3C#N)C(=O)Nc3ccccc34)nc2c1 [Example 249]	< 100
CC(C)C[C@@H](C(=O)N1C[C@]2(C[C@H]1C#N)C(=O)Nc1ccccc12)N(C)C(=O)c1nc2cc(F)ccc2[nH]1 [Example 250]	< 100
CC(C)C[C@@H](C(=O)N1C[C@]2(C[C@H]1C#N)C(=O)Nc1ccccc12)N(C)C(=O)c1nc2cc(Cl)c(Cl)cc2[nH]1 [Example 251]	< 100
Cc1cccc2[nH]c(C(=O)N(C)[C@@H](CC(C)C)C(=O)N3C[C@]4(C[C@H]3C#N)C(=O)Nc3ccccc34)nc12 [Example 252]	< 100
